Structures can show the parent of a compound that is named as a salt.
How the values were obtained:
[1] = PAMPA assay; type: in vitro ADME; conditions: read-out: permeability of reference compounds
Procedure: To determine the passive membrane diffusion rates, Corning Gentest Pre-coated PAMPA Plate System was used. The acceptor plate was prepared by adding 200 μL of 0.1 M phosphate buffer (pH 4.5–8.6) supplemented with 5% DMSO to each well, and then 300 μL of 30 μM compounds in 0.1 M phosphate buffer (pH 4.5–8.6) with 5% DMSO were added to the donor wells. The acceptor plate was then placed on top of the donor plate and incubated at 37 °C for 4 h without agitation. After the incubation, the plates were separated and the solutions from each well of both the acceptor plate and the donor plate were transferred to 96-well plates and mixed with acetonitrile. The final concentrations of compounds in both donor and acceptor wells, as well as the concentrations of the initial donor solutions, were analyzed using liquid chromatography-tandem mass spectrometry (LC-MS/MS). The permeability of the compounds was calculated as described in a previous study. […] Two technical replicates were performed.

[2] = Water solubility, roughly examined; type: physicochemical; conditions: roughly examined
Procedure: Finally, we compared the water solubility of the three berberrubine forms. The solubility of three compounds, the reddish-black solid (quinoid-type berberrubine), the reddish-brown solid (berberrubine acetic acid salt), and the yellow solid (berberrubine acetic acid adduct), in water was roughly examined. […] On the other hand, the reddish-brown solid dissolved in about 30 mg in 1 mL of water.

[3] = system: rodents; conditions: high doses (up to 100 mg/kg/day), intraperitoneal or oral gavage; cited from earlier work
[4] = system: C2C12 cells; experiment: Quantification of mitochondrial DNA (mtDNA/nDNA ratio); type: cell-based, mouse; conditions: C2C12, 10 μM
Procedure: (§1) Murine myoblast C2C12 cells were used for various cellular experiments in this study. Two different sources of C2C12 cells were used depending on the experiment: C2C12 cells obtained from RIKEN BRC (RCB0987) were used for gene expression, mtDNA quantification, and mitochondrial morphology analysis; C2C12 cells from ATCC (CRL-1772) were used for OCR analysis. Cells were cultured in Dulbecco’s Modified Eagle Medium (DMEM; Sigma-Aldrich or Nacalai Tesque), supplemented with 10% FBS and 1% penicillin–streptomycin. Cells were maintained in a humidified incubator at 37°C with 5% CO2.
To generate mMITOL-knockout C2C12 cells, CRISPR-Cas9 vectors were constructed. Single-guide RNAs (sgRNAs) targeting the mouse MITOL gene were designed using the online tool CRISPOR (http://crispor.org). The oligonucleotide pair corresponding to the mMITOL guide RNA (gRNA sequence, 5′-[…]-3′) was annealed and ligated into the PX459 vector (48139, Addgene). C2C12 cells were transfected using Lipofectamine 3000 (Thermo Fisher Scientific), and knockout clones were selected by serial dilution.
To assess mitochondrial DNA (mtDNA) content, the mtDNA/nuclear DNA (nDNA) ratio was determined by extracting DNA from C2C12 cells using the NucleoSpin Tissue Kit (Takara Bio), followed by real-time quantitative PCR analysis with specific primer sets for mtDNA (16S rRNA or ND1) and nDNA (Hexokinase 2; HK2) (Supplementary Table 2). Real-time quantitative PCR was performed using TB Green Premix Ex Taq II (Takara Bio) and a Thermal Cycler Dice Real-Time System (Takara Bio). The analysis of mtDNA/nDNA ratios was conducted using the ΔΔCt method as previously described.

[5] = system: MITOL and mitochondrial proteins in C2C12 myoblasts; experiment: Western blot of mitochondrial proteins in C2C12 myoblasts; type: cell-based, mouse; conditions: 48 h
Procedure: as §1
(§2) For cellular experiments, berberine or quinoid-type berberrubine (Q-BRB) was dissolved in DMSO, and berberrubine acetic acid adduct (AcA-BRB) was dissolved in distilled H2O. Each compound was diluted in culture medium to the indicated final concentrations.
Proteins in sample buffer were separated by SDS-PAGE and transferred to Immobilon-P PVDF membranes (IPVH00010, Millipore). Blots were probed with the indicated antibodies, and protein bands on the blot were visualized using Chemi-Lumi One L (07880-70, Nacalai Tesque) or Immobilon Western Chemiluminescent HRP Substrate (WBKLS0500, Millipore). Band images were captured using a LuminoGraph I imager (WSE-6100, ATTO). Relative band intensities were quantified using Fiji/ImageJ software. Unprocessed western blot images corresponding to the data presented in the main and supplementary figures are provided in Supplementary Figures 11–16.

[6] = system: MITOL and Tom20 mRNA in C2C12 cells; experiment: qRT-PCR analysis of C2C12 cells; type: cell-based, mouse; conditions: C2C12, 5 μM or 10 μM
Procedure: as §1, §2
Total RNA was extracted from C2C12 cells using an RNA extraction kit (RNeasy Mini Kit, Qiagen). After washing with PBS, cells were collected by trypsinization and centrifugation at 500 × g for 5 min, and the pellet was lysed according to the manufacturer’s instructions. The extracted RNA was reverse-transcribed into cDNA using a reverse transcription kit (ReverTra Ace, TOYOBO). Quantitative real-time PCR was performed using a qPCR master mix (KAPA SYBR FAST qPCR Master Mix (2X) Kit, KAPABIOSYSTEMS) and a thermal cycler (StepOnePlus, Applied Biosystems). Gene expression levels were normalized to GAPDH. Primer sets used for qRT-PCR are listed in Supplementary Table 1.

Question: For Cc1cc(=O)n(-c2ccccc2)n1C [antipyrine, reference compound], which Papp at 4 h [1] is on record?
Answer: Its Papp at 4 h is 24 ×10⁻⁶ cm/s.

Question: Which solubility [2] does the source give for COc1ccc2cc3n(cc-2c1=O)CCc1cc2c(cc1-3)OCO2 [berberrubine acetic acid salt] here?
Answer: The solubility was at least 30 mg/mL.

Question: Which Papp at 4 h [1] does the source give for COCCc1ccc(OCC(O)CNC(C)C)cc1 (stereo not shown) [metoprolol, reference compound] here?
Answer: The Papp at 4 h was 3 ×10⁻⁶ cm/s.

Question: Which Papp at 4 h [1] does the source give for O=C(O)c1cc(/N=N/c2ccc(S(=O)(=O)Nc3ccccn3)cc2)ccc1O [sulfasalazine, reference compound] here?
Answer: Its Papp at 4 h is 0.084 ×10⁻⁶ cm/s.

Question: With COc1ccc2cc3[n+](cc2c1O)CCc1cc2c(cc1-3)OCO2 [berberrubine chloride] as the compound, how does the “hepatic toxicity in rodents” value [3] read?
Answer: Its value is “hepatic toxicity”.

Question: What about the “renal toxicity in rodents” value [3] of the same compound?
Answer: The value was “renal toxicity”.

Question: What does the source list for COc1ccc2cc3[n+](cc2c1OC)CCc1cc2c(cc1-3)OCO2 [berberine, reference compound]?
Answer: mitochondrial abundance (mtDNA 16S rRNA or ND1 / nuclear HK2) [4]: did not induce MITOL expression or increase mitochondrial content; levels of Tom20, Mfn2, HSP60 and ATP5a proteins ([5]; C2C12, 5 μM or 10 μM): not observed; MITOL expression (western blot) ([5]; C2C12, 10 μM, berberrubine used as quinoid-type form): did not increase; mRNA levels of MITOL and Tom20 [6]: not observed
